pIC50: −log10 of the molar value.
System: MPNST multicellular tumor spheroids, viability % test/control
Assay: Anticancer human tumor MPNST cell line growth inhibition;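 further: spheroids exposed to agents for seven days after three days of growth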;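 on viability, T/C: luminescence signal used as surrogate for viable cell amount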
Details: for pIC50: curve of first compound; for viability, T/C: stronger effect = lower value
How it was run: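 Complex tumor spheroids combined malignant cells with endothelial cells and mesenchymal stem cells. DNA-damaging drugs and DNA repair inhibitors were tested alone and in combination, at half-log dilutions down from clinical Cmax (top 10 microM if Cmax unknown), 0.25% DMSO final.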

[1] = second compound 1 µM, first compound 0.0316 µM
[2] = second compound 1 µM, first compound 0.1 µM
[3] = second compound 1 µM, first compound 0.316 µM
[4] = second compound 1 µM, first compound 1 µM
[5] = second compound 1 µM, first compound 3.16 µM
[6] = second compound 1 µM, first compound 10 µM
[7] = second compound 3.16 µM, first compound 0.0316 µM
[8] = second compound 3.16 µM, first compound 0.1 µM
[9] = second compound 3.16 µM, first compound 0.316 µM
[10] = second compound 3.16 µM, first compound 1 µM
[11] = second compound 3.16 µM, first compound 3.16 µM
[12] = second compound 3.16 µM, first compound 10 µM
[13] = second compound 10 µM, first compound 0.0316 µM
[14] = second compound 10 µM, first compound 0.1 µM
[15] = second compound 10 µM, first compound 0.316 µM
[16] = second compound 10 µM, first compound 1 µM
[17] = second compound 10 µM, first compound 3.16 µM
[18] = second compound 10 µM, first compound 10 µM
[19] = second compound 31.6 µM, first compound 0.0316 µM
[20] = second compound 31.6 µM, first compound 0.1 µM
[21] = second compound 31.6 µM, first compound 0.316 µM
[22] = second compound 31.6 µM, first compound 1 µM
[23] = second compound 31.6 µM, first compound 3.16 µM
[24] = second compound 31.6 µM, first compound 10 µM
[25] = second compound 100 µM, first compound 0.0316 µM
[26] = second compound 100 µM, first compound 0.1 µM
[27] = second compound 100 µM, first compound 0.316 µM
[28] = second compound 100 µM, first compound 1 µM
[29] = second compound 100 µM, first compound 3.16 µM
[30] = second compound 100 µM, first compound 10 µM

## [2H]c1nc(C)nc([2H])c1-c1cc(NC[C@@H](C)c2cccc3c(C(=O)NC)ccnc23)ncn1 + Cn1nnc2c(C(N)=O)ncn2c1=O
Second compound 1 µM
  pIC50: < 5.00
Second compound 3.16 µM
  pIC50: < 5.00
Second compound 10 µM
  pIC50: < 5.00
Second compound 31.6 µM
  pIC50: < 5.00
Second compound 100 µM
  pIC50: < 5.00
[1]
  viability, T/C: 86.5%
[2]
  viability, T/C: 86.8%
[3]
  viability, T/C: 93.2%
[4]
  viability, T/C: 101%
[5]
  viability, T/C: 97.3%
[6]
  viability, T/C: 104%
[7]
  viability, T/C: 114%
[8]
  viability, T/C: 100%
[9]
  viability, T/C: 76.3%
[10]
  viability, T/C: 91%
[11]
  viability, T/C: 89.8%
[12]
  viability, T/C: 104%
[13]
  viability, T/C: 81.1%
[14]
  viability, T/C: 94.9%
[15]
  viability, T/C: 108%
[16]
  viability, T/C: 116%
[17]
  viability, T/C: 94.1%
[18]
  viability, T/C: 108%
[19]
  viability, T/C: 85%
[20]
  viability, T/C: 85.9%
[21]
  viability, T/C: 79.5%
[22]
  viability, T/C: 96.8%
[23]
  viability, T/C: 78.7%
[24]
  viability, T/C: 101%
[25]
  viability, T/C: 89.5%
[26]
  viability, T/C: 111%
[27]
  viability, T/C: 113%
[28]
  viability, T/C: 81.1%
[29]
  viability, T/C: 107%
[30]
  viability, T/C: 89.9%

## Cc1cc(C)c(CNC(=O)c2cc(-c3ccc(CN4CCOCC4)cc3)cc3c2cnn3C2CCCC2)c(=O)[nH]1 + Cn1nnc2c(C(N)=O)ncn2c1=O
Second compound 1 µM
  pIC50: < 5.00
Second compound 3.16 µM
  pIC50: < 5.00
Second compound 10 µM
  pIC50: < 5.00
Second compound 31.6 µM
  pIC50: < 5.00
Second compound 100 µM
  pIC50: < 5.00
[1]
  viability, T/C: 95.9%
[2]
  viability, T/C: 82.8%
[3]
  viability, T/C: 101%
[4]
  viability, T/C: 92.7%
[5]
  viability, T/C: 115%
[6]
  viability, T/C: 98.6%
[7]
  viability, T/C: 141%
[8]
  viability, T/C: 96.7%
[9]
  viability, T/C: 116%
[10]
  viability, T/C: 109%
[11]
  viability, T/C: 103%
[12]
  viability, T/C: 104%
[13]
  viability, T/C: 75.3%
[14]
  viability, T/C: 90.9%
[15]
  viability, T/C: 107%
[16]
  viability, T/C: 91%
[17]
  viability, T/C: 109%
[18]
  viability, T/C: 103%
[19]
  viability, T/C: 103%
[20]
  viability, T/C: 85.8%
[21]
  viability, T/C: 111%
[22]
  viability, T/C: 107%
[23]
  viability, T/C: 103%
[24]
  viability, T/C: 99.5%
[25]
  viability, T/C: 99.1%
[26]
  viability, T/C: 97.5%
[27]
  viability, T/C: 96.9%
[28]
  viability, T/C: 109%
[29]
  viability, T/C: 97.9%
[30]
  viability, T/C: 88.4%

## Cn1ncnc1[C@H]1c2n[nH]c(=O)c3cc(F)cc(c23)N[C@@H]1c1ccc(F)cc1 + Cn1nnc2c(C(N)=O)ncn2c1=O
Second compound 1 µM
  pIC50: 5.56
Second compound 3.16 µM
  pIC50: < 5.52
Second compound 10 µM
  pIC50: < 5.52
Second compound 31.6 µM
  pIC50: 6.30
Second compound 100 µM
  pIC50: 7.57
Second compound 1 µM, first compound 0.00949 µM
  viability, T/C: 93.1%
Second compound 1 µM, first compound 0.03 µM
  viability, T/C: 77.1%
Second compound 1 µM, first compound 0.0949 µM
  viability, T/C: 70.3%
Second compound 1 µM, first compound 0.3 µM
  viability, T/C: 58.9%
Second compound 1 µM, first compound 0.949 µM
  viability, T/C: 52%
Second compound 1 µM, first compound 3 µM
  viability, T/C: 50.8%
Second compound 3.16 µM, first compound 0.00949 µM
  viability, T/C: 77.7%
Second compound 3.16 µM, first compound 0.03 µM
  viability, T/C: 74%
Second compound 3.16 µM, first compound 0.0949 µM
  viability, T/C: 74.2%
Second compound 3.16 µM, first compound 0.3 µM
  viability, T/C: 55.2%
Second compound 3.16 µM, first compound 0.949 µM
  viability, T/C: 53.7%
Second compound 3.16 µM, first compound 3 µM
  viability, T/C: 52.7%
Second compound 10 µM, first compound 0.00949 µM
  viability, T/C: 79%
Second compound 10 µM, first compound 0.03 µM
  viability, T/C: 71.6%
Second compound 10 µM, first compound 0.0949 µM
  viability, T/C: 63.9%
Second compound 10 µM, first compound 0.3 µM
  viability, T/C: 55.8%
Second compound 10 µM, first compound 0.949 µM
  viability, T/C: 51.7%
Second compound 10 µM, first compound 3 µM
  viability, T/C: 51.7%
Second compound 31.6 µM, first compound 0.00949 µM
  viability, T/C: 61.7%
Second compound 31.6 µM, first compound 0.03 µM
  viability, T/C: 56%
Second compound 31.6 µM, first compound 0.0949 µM
  viability, T/C: 58.1%
Second compound 31.6 µM, first compound 0.3 µM
  viability, T/C: 48.9%
Second compound 31.6 µM, first compound 0.949 µM
  viability, T/C: 48.2%
Second compound 31.6 µM, first compound 3 µM
  viability, T/C: 46.5%
Second compound 100 µM, first compound 0.00949 µM
  viability, T/C: 52.5%
Second compound 100 µM, first compound 0.03 µM
  viability, T/C: 50%
Second compound 100 µM, first compound 0.0949 µM
  viability, T/C: 49%
Second compound 100 µM, first compound 0.3 µM
  viability, T/C: 46.2%
Second compound 100 µM, first compound 0.949 µM
  viability, T/C: 47.5%
Second compound 100 µM, first compound 3 µM
  viability, T/C: 48.3%

## COc1ccc([C@@H](O)c2cc(-c3ncnc4cc(N5CCOCC5)ccc34)c(F)cc2Cl)nn1 + CC[C@@]1(O)C(=O)OCc2c1cc1n(c2=O)Cc2cc3c(CN(C)C)c(O)ccc3nc2-1
Second compound 0.003 µM
  pIC50: 5.93
Second compound 0.00949 µM
  pIC50: 6.19
Second compound 0.03 µM
  pIC50: > 7.50
Second compound 0.0949 µM
  pIC50: > 7.50
Second compound 0.3 µM
  pIC50: > 7.50
Second compound 0.003 µM, first compound 0.0316 µM
  viability, T/C: 96.3%
Second compound 0.003 µM, first compound 0.1 µM
  viability, T/C: 77.6%
Second compound 0.003 µM, first compound 0.316 µM
  viability, T/C: 69.2%
Second compound 0.003 µM, first compound 1 µM
  viability, T/C: 55.6%
Second compound 0.003 µM, first compound 3.16 µM
  viability, T/C: 33.5%
Second compound 0.003 µM, first compound 10 µM
  viability, T/C: 14.6%
Second compound 0.00949 µM, first compound 0.0316 µM
  viability, T/C: 78.4%
Second compound 0.00949 µM, first compound 0.1 µM
  viability, T/C: 81.6%
Second compound 0.00949 µM, first compound 0.316 µM
  viability, T/C: 57.7%
Second compound 0.00949 µM, first compound 1 µM
  viability, T/C: 41%
Second compound 0.00949 µM, first compound 3.16 µM
  viability, T/C: 33%
Second compound 0.00949 µM, first compound 10 µM
  viability, T/C: 17.3%
Second compound 0.03 µM, first compound 0.0316 µM
  viability, T/C: 42.7%
Second compound 0.03 µM, first compound 0.1 µM
  viability, T/C: 42.9%
Second compound 0.03 µM, first compound 0.316 µM
  viability, T/C: 42.6%
Second compound 0.03 µM, first compound 1 µM
  viability, T/C: 36.1%
Second compound 0.03 µM, first compound 3.16 µM
  viability, T/C: 21%
Second compound 0.03 µM, first compound 10 µM
  viability, T/C: 16.4%
Second compound 0.0949 µM, first compound 0.0316 µM
  viability, T/C: 44.7%
Second compound 0.0949 µM, first compound 0.1 µM
  viability, T/C: 39.2%
Second compound 0.0949 µM, first compound 0.316 µM
  viability, T/C: 37.6%
Second compound 0.0949 µM, first compound 1 µM
  viability, T/C: 34.7%
Second compound 0.0949 µM, first compound 3.16 µM
  viability, T/C: 22.8%
Second compound 0.0949 µM, first compound 10 µM
  viability, T/C: 15.7%
Second compound 0.3 µM, first compound 0.0316 µM
  viability, T/C: 36.1%
Second compound 0.3 µM, first compound 0.1 µM
  viability, T/C: 39.7%
Second compound 0.3 µM, first compound 0.316 µM
  viability, T/C: 32.6%
Second compound 0.3 µM, first compound 1 µM
  viability, T/C: 27.6%
Second compound 0.3 µM, first compound 3.16 µM
  viability, T/C: 18%
Second compound 0.3 µM, first compound 10 µM
  viability, T/C: 10.3%

— PubChem BioAssay AID1845205 (Molecular Pharmacology Branch, DTP, NCI, 2023)
